# How the values were obtained:
# [1] = tested on: Dollar spot (Sclerotinia homoeocarpa); assay: Dollar spot on creeping bentgrass fairways, field plots (% damage); format: in vivo; conditions: Plot 2, Metconazole 0.14 oz ai/1000 sq ft
# Text: (§1) In order to determine the efficacy of combinations of metconazole and Myrothecium verucaria fermentation solids and solubles, numerous treatments were applied to plots in an area of turf grass. Specifically, the plots had established creeping bentgrass growing. No weed infestation was observed. Each plot was 30 square feet and the treatments were done in four replications. A randomized control was included in each block. The plots were no-till golf fairways. The treatments were applied during times of heat stress and also during times when no heat stress was present. The treatment solutions were prepared by pouring the liquid and dispersible granules in water and mixing. Treatments were applied to the turf grass at a volume of 2 gallons (256 liquid ounces)/1000 ft^2 with a CO2 backpack sprayer at 34 psi with a ground speed of 1 mph. The plots received six applications on 22 May, 6 June, 19 June, 4 July, 17 July, and 14 August. The turf grass was evaluated approximately every 7 days. Effect of Metconazole and Myrothecium verucaria fermentation solids and solubles on Dollar Spot on Creeping Bentgrass Fairways (% Damage)” and “Table 2. Effect of Metconazole and Myrothecium verucaria fermentation solids and solubles on Dollar Spot on Creeping Bentgrass Fairways (Quality Rating Based on a Scale of 1-9)”.
# [2] = tested on: creeping bentgrass; assay: Turf quality rating of creeping bentgrass fairways with dollar spot, field plots (scale 1-9); format: in vivo, creeping bentgrass (Agrostis stolonifera); conditions: Plot 2, Metconazole 0.14 oz ai/1000 sq ft
# Text: as §1
smiles,measurement,setting,value
"CC1(C)CCC(Cc2ccc(Cl)cc2)C1(O)Cn1cncn1 (centres unmarked) [Metconazole, 5-[(4-chlorophenyl)methyl]-2,2-dimetyl-1-(1 H-1,2,4-triazol-1-ylmethyl)cyclopentanol]",Dollar Spot % Damage,[1]; 3 July,16.3%
same,Dollar Spot % Damage,[1]; 6 June,8.8%
same,Dollar Spot % Damage,[1]; 7 Aug,36.3%
same,Dollar Spot % Damage,[1]; 10 July,32.5%
same,Dollar Spot % Damage,[1]; 14 Aug,55.0%
same,Dollar Spot % Damage,[1]; 15 June,7.5%
same,Dollar Spot % Damage,[1]; 17 July,36.3%
same,Dollar Spot % Damage,[1]; 21 Aug,37.5%
same,Dollar Spot % Damage,[1]; 22 June,10.0%
same,Dollar Spot % Damage,[1]; 25 July,24.3%
same,Dollar Spot % Damage,[1]; 26 June,11.3%
same,Dollar Spot % Damage,[1]; 31 July,31.3%
same,Quality Rating Based on a Scale of 1-9,[2]; 3 July,4.5
same,Quality Rating Based on a Scale of 1-9,[2]; 7 Aug,4.8
same,Quality Rating Based on a Scale of 1-9,[2]; 10 July,3.8
same,Quality Rating Based on a Scale of 1-9,[2]; 14 Aug,4.0
same,Quality Rating Based on a Scale of 1-9,[2]; 15 June,6.0
same,Quality Rating Based on a Scale of 1-9,[2]; 17 July,3.5
same,Quality Rating Based on a Scale of 1-9,[2]; 21 Aug,4.3
same,Quality Rating Based on a Scale of 1-9,[2]; 22 June,5.5
same,Quality Rating Based on a Scale of 1-9,[2]; 25 July,4.8
same,Quality Rating Based on a Scale of 1-9,[2]; 26 June,5.5
same,Quality Rating Based on a Scale of 1-9,[2]; 31 July,4.8

# Reference: patent US20160128338A1, “COMPOSITION AND METHODS FOR IMPROVED TURF HEALTH” (Valent U.S.A., Corporation, priority 2014, published 2016)
